According to patent publication US9504754B2, “Curcuminoid complexes with enhanced stability, solubility and/or bioavailability” (South Dakota Board of Regents, priority 2013, dated 2016):

Tests used:
[1] = Aqueous solubility of curcumin at different pH (FIG. 6A/6B); type: physicochemical
[2] = without any solubility enhancement techniques; cited from earlier work

- aqueous solubility of curcumin (colour of solution) ([1]; pH 1.2): absence of soluble curcumin
- aqueous solubility of curcumin (colour of solution) ([1]; pH 4.5): absence of soluble curcumin
- aqueous solubility of curcumin (colour of solution) ([1]; pH 7.0): absence of soluble curcumin
- aqueous solubility of curcumin (colour of solution) ([1]; pH 7.4): absence of soluble curcumin
Compound: COc1cc(/C=C/C(=O)CC(=O)/C=C/c2ccc(O)c(OC)c2)ccc1O [free curcumin, (1E,6E)-1,7-bis(4-hydroxy-3-methoxyphenyl)-1,6-heptadiene-3,5-dione]
- solubility in water [2]: less than 1 μg/ml
